# Data from patent US10085933B2, “Cosmetic use of an essential oil of Laserpitium siler L. for keratin materials” (L'OREAL, priority 2013, dated 2018).
# Test system: dermal capillaries of normal human skin maintained alive
# Assay: Vascular modulation (vasodilation/vasoconstriction) in a model of normal human skin maintained alive; histological morphometry of dermal capillaries
# Type: cell-based
# Settings: 1 μM noradrenalin in culture medium, 48 hours organ culture; for percentage of dilated vessels (dilated capillaries): mean of six skin samples, control skin 74.8 ± 20.8; for mean area occupied by the lumen of the blood vessels (capillaries) in the dermis: control skin 153.6 ± 74.4
# Description: The object of this study is to analyse the effect on vascular modulation, namely vasodilation or vasoconstriction, of the essential oil of Laserpitium siler L. evaluated in a model of normal human skin maintained alive.
# The analyses are histological by morphometric quantification of the calibre of the dermal capillaries and semi-quantitative evaluation of the oedema.
# Fragments of normal human skin are obtained from a plastic surgery. They are placed in inserts, which are themselves positioned on culture wells. Culture medium specifically adapted to survival maintenance is added to the bottom of the wells, a passage being made by slow diffusion between the two compartments via a porous membrane (3 μm).
# The second positive control consisted in adding 1 μM noradrenalin to the culture medium so as to obtain vasoconstriction of the dermal capillaries.
# The essential oil of Laserpitium siler L. at the test concentrations dissolved in ethanol is added to the culture medium.
# The skin fragments are then maintained in organ culture for 48 hours in an oven under a humid atmosphere, at 37° C. and in the presence of 5% CO2.
# The skin fragments are fixed in Bouin liquid and included in paraffin. After staining with haemalum-eosin, two criteria are evaluated on the dermis: the oedema and the calibre of the capillaries.
# After staining with haemalum-eosin, the vascular dilation is evaluated by counting the number of dilated blood vessels on the entire histological slice (16 fields at magnification 40). This number is carried over to the total number of blood vessels in order to calculate the percentage of dilated vessels.
# Moreover, a morphometric analysis of the area (μm^2) occupied by the lumen of the blood vessels was performed in order to determine the mean area (μm^2) occupied in the dermis by the vessels.
# A mean is calculated for each parameter from the results obtained on the six skin samples. The statistical analysis was performed via the “reduced deviation” Student test or paired-samples test, with a risk a of 5%.
smiles,measurement,setting,value
NC[C@H](O)c1ccc(O)c(O)c1 [noradrenalin],percentage of dilated vessels (dilated capillaries),,52.5 ± 20.6%
same,percentage of dilated vessels (dilated capillaries),listed as Noradrenalin,52.5%
same,mean area occupied by the lumen of the blood vessels (capillaries) in the dermis,,93.7 ± 65.7 μm^2
same,mean area occupied by the lumen of the blood vessels (capillaries) in the dermis,listed as Noradrenalin,93.7 μm^2
